# Reference: patent US9694016B2 (Novartis AG, priority 2013, dated 2017)
# Target: b-Raf (V600E) (Homo sapiens (Human), UniProt P15056, V600E)
# Settings: read-out: b-Raf IC-50; AlphaScreen, 60 min pre-incubation, 3 hours reaction
# Sequence of b-Raf (V600E) (P15056 whole entry V600E): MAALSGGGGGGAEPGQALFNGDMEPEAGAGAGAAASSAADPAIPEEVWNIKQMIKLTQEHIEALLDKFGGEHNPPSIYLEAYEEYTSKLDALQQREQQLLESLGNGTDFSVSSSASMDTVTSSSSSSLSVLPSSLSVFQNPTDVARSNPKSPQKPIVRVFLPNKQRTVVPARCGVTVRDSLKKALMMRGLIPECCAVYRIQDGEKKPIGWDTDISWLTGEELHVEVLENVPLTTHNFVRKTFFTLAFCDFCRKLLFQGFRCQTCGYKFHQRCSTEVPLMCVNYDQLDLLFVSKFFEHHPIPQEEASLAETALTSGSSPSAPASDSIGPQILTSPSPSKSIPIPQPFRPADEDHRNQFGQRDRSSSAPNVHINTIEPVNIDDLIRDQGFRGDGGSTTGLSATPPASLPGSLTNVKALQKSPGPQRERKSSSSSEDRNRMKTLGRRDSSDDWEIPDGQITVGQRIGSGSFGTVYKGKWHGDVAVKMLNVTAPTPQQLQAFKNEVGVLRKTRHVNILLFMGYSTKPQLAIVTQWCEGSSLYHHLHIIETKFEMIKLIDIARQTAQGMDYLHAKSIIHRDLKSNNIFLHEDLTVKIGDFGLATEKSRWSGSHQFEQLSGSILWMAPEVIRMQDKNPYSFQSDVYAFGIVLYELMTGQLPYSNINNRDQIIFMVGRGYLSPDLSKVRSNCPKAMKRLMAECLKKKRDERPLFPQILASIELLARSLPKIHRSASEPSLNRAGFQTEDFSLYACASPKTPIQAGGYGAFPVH
row,Compound,IC50
1,"Cc1ncc(NC(=O)c2cccc(C(F)(F)F)c2)cc1-c1cc(N2CCOCC2)nc(OC2CNC2)n1 [Example 776, N-(5-(2-(azetidin-3-yloxy)-6-morpholinopyrimidin-4-yl)-6-methylpyridin-3-yl)-3-(trifluoromethyl)benzamide]",25000 nM
2,"CCNc1nc(-c2cc(NC(=O)c3ccnc(C4COC4)c3)ccc2C)cc(N2CCOCC2)n1 [Example 707, N-(3-(2-(ethylamino)-6-morpholinopyrimidin-4-yl)-4-methylphenyl)-2-(oxetan-3-yl)isonicotinamide]",1.9 nM

# Second part, the molecule after the results:
row,IC50,Compound
1,3.8 nM,"CCOc1nnc(-c2cc(NC(=O)c3ccnc(C(C)(C)C#N)c3)ccc2C)cc1N1CCOC[C@@H]1C [Example 572, (S)-2-(2-cyanopropan-2-yl)-N-(3-(6-ethoxy-5-(3-methylmorpholino)pyridazin-3-yl)-4-methylphenyl)isonicotinamide]"
2,4.6 nM,Cc1ccc(NC(=O)c2ccnc(C(C)(C)C#N)c2)cc1-c1cc(N2CCOCC2)nc(N[C@@H](C)CO)n1 [Example 746]
3,1.3 nM,"Cc1ccc(NC(=O)c2cnnc(C(C)(C)C#N)c2)cc1-c1cc(N2CCOCC2)c(OC2CCOCC2)nn1 [Example 583, 6-(2-cyanopropan-2-yl)-N-(4-methyl-3-(5-morpholino-6-((tetrahydro-2H-pyran-4-yl)oxy)pyridazin-3-yl)phenyl)pyridazine-4-carboxamide]"

# Same assay, conditions: read-out: b-Raf IC-50; AlphaScreen, 60 min pre-incubation, reaction 3 hours at room temperature
row,Compound,IC50
1,"Cc1ncc(NC(=O)c2cccc(C(F)(F)F)c2)cc1-c1cc(N2CCOCC2)c2nccn2c1 [Example 883, N-(6-methyl-5-(8-morpholinoimidazo[1,2-a]pyridin-6-yl)pyridin-3-yl)-3-(trifluoromethyl)benzamide]",1.7 nM
2,"Cc1ccc(NC(=O)c2cnnc(C3(C#N)CC3)c2)cc1-c1cc(N2CCOCC2)n(C)c(=O)c1 [Example 899, 6-(1-cyanocyclopropyl)-N-(4-methyl-3-(1-methyl-6-morpholino-2-oxo-1,2-dihydropyridin-4-yl)phenyl)pyridazine-4-carboxamide]",1.87 nM
3,"Cc1ncc(NC(=O)c2cc(C(C)(F)F)ccn2)cc1-c1cnc(OCCO)c(N2CCOCC2)c1 [Example 974, 4-(1,1-difluoroethyl)-N-(6′-(2-hydroxyethoxy)-2-methyl-5-morpholino-[3,3′-bipyridin]-5-yl)picolinamide]",2.78 nM
4,"Cc1ncc(NC(=O)c2cc(C(C)(F)F)ccn2)cc1-c1cnc(OC(C)C)c(N2CCOCC2)c1 [Example 956, 4-(1,1-difluoroethyl)-N-(6′-isopropoxy-2-methyl-5-morpholino-[3,3′-bipyridin]-5-yl)picolinamide]",2.94 nM

# Now from value to molecule:
row,IC50,Compound
1,20.4 nM,"Cc1ncc(NC(=O)c2ccnc(C(C)(C)C#N)c2)cc1-c1cc(N2CCOCC2)nc(N2CC(C)(O)C2)c1 [Example 1108, 2-(2-cyanopropan-2-yl)-N-(2′-(3-hydroxy-3-methylazetidin-1-yl)-2-methyl-6′-morpholino-[3,4′-bipyridin]-5-yl)isonicotinamide]"
2,0.98 nM,"COc1nnc(-c2cc(C(=O)Nc3ccnc(C(F)(F)F)c3)ccc2C)cc1N1CCOCC1 [Example 1017, 3-(6-methoxy-5-morpholinopyridazin-3-yl)-4-methyl-N-(2-(trifluoromethyl)pyridin-4-yl)benzamide]"
3,1.6 nM,"Cc1ccc(NC(=O)c2ccnc(C(C)(C)O)c2)cc1-c1cc(OC2CCOCC2)nc(N2CCOCC2)c1 [Example 1150, 2-(2-hydroxypropan-2-yl)-N-(4-methyl-3-(2-morpholino-6-((tetrahydro-2H-pyran-4-yl)oxy)pyridin-4-yl)phenyl)isonicotinamide]"

# Same assay, conditions: read-out: b-Raf IC-50; Table 2; AlphaScreen, 3 hours reaction
row,IC50,Compound
1,3.8 nM,"Cc1ccc(NC(=O)c2cnnc(C(C)(C)F)c2)cc1-c1cc(N2CCOCC2)c(=O)n(C)c1 [Example 363, 6-(2-fluoropropan-2-yl)-N-(4-methyl-3-(1-methyl-5-morpholino-6-oxo-1,6-dihydropyridin-3-yl)phenyl)pyridazine-4-carboxamide]"
